Patent US12466885B2, “Bispecific chimeric antigen receptors and encoding polynucleotides, vectors and cells thereof” (Seattle Children's Hospital, priority 2012, dated 2025)

Experiments:
huEGFRt^+ T cells = experiment: ADCC of huEGFRt^+ T cells, 4-hour chromium release assay; format: cell-based, human
Text: A valuable feature of a cell surface selection/tracking marker would be its capacity to serve as a target for in vivo cell ablation.
^51Cr-labeled huEGFRt^+ T cells as the target cells and human GM-CSF activated fresh PBMCs as effectors were co-cultured.

[1] = test system: transduced primary human T cells (CD62L^+CD45RO^+); experiment: MTX selection of CD19CAR-huEGFRt-hDHFR^FS transduced primary human T cells; format: cell-based
Method: (§1) Applicants transduced primary human T cells with the same CD19CAR-huEGFRt-hDHFR^FS lentiviral vector. Purified CD62L^+CD45RO^+ T cells were used as a starting population based on their potential for persistence after adoptive transfer. Ten days after transduction, these T cells were cultured in varying concentrations of MTX and assessed for cell number and viability over time.

[2] = test system: non-transduced CTLL2 cells; experiment: MTX effect on non-transduced CTLL2 cells; format: cell-based, murine; details: ≥0.05 μM MTX
Text: In the absence of MTX, the non-transduced and transduced CTLL2 cells expanded at an equivalent rate (21- and 27-fold respectively).

[3] = test system: non-transduced primary human T cells; experiment: MTX effect on non-transduced primary human T cells; format: cell-based; details: starting at concentrations as low as 0.025 μM MTX
Method: as §1

transduced CTLL2 cells = experiment: MTX resistance and selection of CD19CAR-huEGFRt-hDHFR^FS transduced CTLL2 cells; format: cell-based, murine; details: for huEGFRt^+ cells: 8 days
Method: CTLL2 T cells were first transduced with this CD19CAR-huEGFRt-hDHFR^FS lentiviral vector and evaluated for their resistance to MTX.
To further characterize the maximum dose of MTX that could be tolerated by selected CTLL2 cells, transduced CTLL2 cells that had been cultured in 0.1 μM MTX for 8 days were re-plated at a wider range of MTX concentrations (up to 0.75 μM).

Molecule | triggering ADCC of huEGFRt^+ T cells (huEGFRt^+ T cells) | CD19CAR^+ cells ([1]; 0.025 μM MTX, 10 days) | EGFRt^+ cells ([1]; 0.025 μM MTX, 10 days) [%] | CD19CAR^+ cells ([1]; 0.05 μM MTX, 10 days) | EGFRt^+ cells ([1]; 0.05 μM MTX, 10 days) [%] | viability of transduced T cells ([1]; 0.1 μM MTX) [%] | CD19CAR^+ cells ([1]; Day 6 of culture (Day 0: 18%)) [%] | EGFRt^+ cells ([1]; Day 6 of culture (Day 0: 28%)) [%] | CD19CAR^+ cells ([1]; Day 10 of culture) [%] | EGFRt^+ cells ([1]; Day 10 of culture) [%] | non-transduced CTLL2 cell expansion and viability [2] | viability and fold-expansion of non-transduced primary human T cells [3] | huEGFRt^+ cells (transduced CTLL2 cells; 0.01 μM MTX) [%] | huEGFRt^+ cells (transduced CTLL2 cells; 0.025 μM MTX) [%] | huEGFRt^+ cells (transduced CTLL2 cells; 0.05 μM MTX) [%] | huEGFRt^+ cells (transduced CTLL2 cells; 0.1 μM MTX) [%] | expansion of transduced cells (transduced CTLL2 cells; MTX (0-0.1 μM) for 8 days) [fold] | survival of transduced cells (transduced CTLL2 cells; MTX (0-0.1 μM) for 8 days) [%] | expansion of transduced and pre-MTX selected cells (transduced CTLL2 cells; MTX concentrations up to 0.25 μM, pre-cultured in 0.1 μM MTX for 8 days)
RITUXAN® (rituximab): CD20-specific mAb | no effect | – | – | – | – | – | – | – | – | – | – | – | – | – | – | – | – | – | –
CN(Cc1cnc2nc(N)nc(N)c2n1)c1ccc(C(=O)N[C@@H](CCC(=O)O)C(=O)O)cc1 [MTX, methotrexate] | – | about 54% | ~79 | about 76% | ~89 | 63 | 48 | 71 | 70 | 88 | strong inhibition | strong inhibition | 49 | 93 | 98.5 | 99 | 7 | 80 | 90-100 fold
